{"source": "patent US10183021B2", "about": "“sGC stimulators” (Ironwood Pharmaceuticals, Inc., priority 2013, dated 2019)"}
{"target": "soluble guanylate cyclase (sGC) (Homo sapiens (Human), UniProt Q02108+Q02153)", "sequence (Q02153 whole entry)": "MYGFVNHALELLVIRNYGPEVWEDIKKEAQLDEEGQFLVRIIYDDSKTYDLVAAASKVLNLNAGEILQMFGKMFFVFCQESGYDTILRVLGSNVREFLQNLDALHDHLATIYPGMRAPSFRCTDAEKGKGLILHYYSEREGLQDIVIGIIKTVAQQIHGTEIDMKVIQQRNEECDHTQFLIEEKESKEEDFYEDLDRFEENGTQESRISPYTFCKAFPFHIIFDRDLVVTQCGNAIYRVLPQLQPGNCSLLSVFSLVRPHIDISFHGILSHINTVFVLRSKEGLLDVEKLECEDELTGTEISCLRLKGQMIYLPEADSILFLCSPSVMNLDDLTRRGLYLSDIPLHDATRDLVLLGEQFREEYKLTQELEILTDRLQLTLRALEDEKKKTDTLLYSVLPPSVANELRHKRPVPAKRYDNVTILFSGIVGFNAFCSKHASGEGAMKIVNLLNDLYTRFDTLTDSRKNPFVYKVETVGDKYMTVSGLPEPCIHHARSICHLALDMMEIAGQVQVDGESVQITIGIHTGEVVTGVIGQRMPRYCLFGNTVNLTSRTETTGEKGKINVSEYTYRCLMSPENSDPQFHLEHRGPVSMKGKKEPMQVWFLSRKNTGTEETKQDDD", "sequence (Q02108 whole entry)": "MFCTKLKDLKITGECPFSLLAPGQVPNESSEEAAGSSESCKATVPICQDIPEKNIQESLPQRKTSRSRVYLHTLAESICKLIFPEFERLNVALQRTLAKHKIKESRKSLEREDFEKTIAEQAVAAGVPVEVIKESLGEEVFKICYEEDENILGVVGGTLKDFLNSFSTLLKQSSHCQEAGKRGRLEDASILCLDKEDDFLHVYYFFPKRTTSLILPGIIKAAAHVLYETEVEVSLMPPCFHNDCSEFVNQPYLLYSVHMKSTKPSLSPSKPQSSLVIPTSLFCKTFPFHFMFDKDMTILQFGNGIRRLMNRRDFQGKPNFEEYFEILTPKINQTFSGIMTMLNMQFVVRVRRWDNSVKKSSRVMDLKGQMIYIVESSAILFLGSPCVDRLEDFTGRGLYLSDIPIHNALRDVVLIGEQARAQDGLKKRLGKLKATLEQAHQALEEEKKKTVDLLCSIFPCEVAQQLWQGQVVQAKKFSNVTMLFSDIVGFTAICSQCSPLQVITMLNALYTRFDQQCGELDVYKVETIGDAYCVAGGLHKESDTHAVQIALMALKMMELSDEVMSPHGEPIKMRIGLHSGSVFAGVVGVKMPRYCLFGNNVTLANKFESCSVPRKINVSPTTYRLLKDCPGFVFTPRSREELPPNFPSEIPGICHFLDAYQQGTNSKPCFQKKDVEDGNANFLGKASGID", "assay": "sGC-HEK-cGMP assay, new protocol with DETA-NONOate, LC/MS detection (Example 2C)", "type": "cell-based", "settings": "read-out: Absolute EC50 (uM) - binned", "units": {"EC50": "µM"}}
{"compound": "O=S(=O)(Cc1ccc(F)cc1)Nc1nc(-c2cc(-c3ccon3)n(Cc3ccccc3F)n2)ncc1F", "note": "[Compound I-607]", "EC50": "0.101 to 1"}
{"compound": "O=S(=O)(NC1(CNc2nc(-c3cc(-c4ccon4)n(Cc4ccccc4F)n3)ncc2F)CC1)C(F)(F)F", "note": "[Compound I-354]", "EC50": "< 0.1"}
{"compound": "Cc1cc(-c2ncc(F)c(=O)[nH]2)nn1Cc1ccccc1F", "note": "[Compound I-410]", "EC50": "> 1"}
{"compound": "OC1(CNc2nc(-c3cc(-c4ccon4)n(Cc4ccccc4F)n3)ncc2F)CCOCC1", "note": "[Compound I-397]", "EC50": "< 0.1"}
{"compound": "CS(=O)(=O)NC(=O)CNc1nc(-c2cc(-c3ccon3)n(Cc3ccccc3F)n2)ncc1F", "note": "[Compound I-546]", "EC50": "> 1"}
{"compound": "O=C(O)C12CC(Nc3nc(-c4cc(-c5ccon5)n(Cc5ccccc5F)n4)ncc3F)(C1)C2", "note": "[Compound I-269]", "EC50": "> 1"}
{"compound": "O=C(Nc1ccnc(-c2cc(-c3ccon3)n(Cc3ccccc3F)n2)n1)c1cncs1", "note": "[Compound I-552]", "EC50": "> 1"}
{"compound": "O=C(Nc1ccnc(-c2cc(-c3ccon3)n(Cc3ccccc3F)n2)n1)C1(OCc2ccccc2)CC1", "note": "[Compound I-461]", "EC50": "> 1"}
{"compound": "OCC(CO)Nc1cnnc(-c2cc(-c3ccon3)n(Cc3ccccc3F)n2)n1", "note": "[Compound I-416]", "EC50": "> 1"}
{"compound": "O=C(Nc1ccnc(-c2cc(-c3ccon3)n(Cc3ccccc3F)n2)n1)c1cscn1", "note": "[Compound I-549]", "EC50": "> 1"}
{"compound": "COC(=O)NCC(Nc1nc(-c2cc(-c3ccon3)n(Cc3ccccc3F)n2)ncc1F)C(F)(F)F", "note": "(stereo not drawn) [Compound I-568]", "EC50": "< 0.1"}
{"compound": "CN(C[C@H](O)CO)c1nc(-c2cc(-c3ccon3)n(Cc3ccccc3F)n2)ncc1F", "note": "[Compound I-320]", "EC50": "< 0.1"}
{"compound": "CS(=O)(=O)NCC(=O)Nc1ccnc(-c2cc(-c3ccon3)n(Cc3ccccc3F)n2)n1", "note": "[Compound I-543]", "EC50": "0.101 to 1"}
{"compound": "COCCC(=O)Nc1ccnc(-c2cc(-c3ccon3)n(Cc3ccccc3F)n2)n1", "note": "[Compound I-547]", "EC50": "0.101 to 1"}
{"compound": "OCCNc1nc(-c2cc(-c3ccon3)n(Cc3ccccc3F)n2)ncc1F", "note": "[Compound I-407]", "EC50": "< 0.1"}
{"compound": "O=C(Nc1ccnc(-c2cc(-c3ccon3)n(Cc3ccccc3F)n2)n1)C(F)(F)F", "note": "[Compound I-164]", "EC50": "0.101 to 1"}
{"compound": "CS(=O)(=O)CCC(=O)Nc1ccnc(-c2cc(-c3ccon3)n(Cc3ccccc3F)n2)n1", "note": "[Compound I-573]", "EC50": "0.101 to 1"}
{"compound": "O=C(O)[C@H]1[C@@H](Nc2nc(-c3cc(-c4ccon4)n(Cc4ccccc4F)n3)ncc2F)[C@@H]2CC[C@H]1O2", "note": "(racemic) [Compound I-384]", "EC50": "> 1"}
{"compound": "Nc1nc(-c2cc(-c3ccon3)n(CCC(F)(F)F)n2)ncc1F", "note": "[Compound I-513]", "EC50": "> 1"}
{"compound": "O=C(Nc1ccnc(-c2cc(-c3ccon3)n(Cc3ccccc3F)n2)n1)c1cccc(=O)[nH]1", "note": "[Compound I-553]", "EC50": "> 1"}
{"compound": "NC(=O)CNc1nc(-c2cc(-c3ccon3)n(Cc3ccccc3F)n2)ncc1F", "note": "[Compound I-417]", "EC50": "0.101 to 1"}
{"compound": "O=S(=O)(CCNc1nc(-c2cc(-c3ccon3)n(Cc3ccccc3F)n2)ncc1F)NCCO", "note": "[Compound I-439]", "EC50": "< 0.1"}
{"compound": "O=C(CO)Nc1ccnc(-c2cc(-c3ccon3)n(Cc3ccccc3F)n2)n1", "note": "[Compound I-499]", "EC50": "> 1"}
{"compound": "C[C@H]1CCCN(c2nc(-c3cc(C#N)n(Cc4ccccc4F)n3)ncc2F)[C@H]1C(=O)O", "note": "[Compound I-457]", "EC50": "0.101 to 1"}
{"compound": "CC(=O)Nc1ccnc(-c2cc(-c3ccon3)n(Cc3ccccc3F)n2)n1", "note": "[Compound I-524]", "EC50": "> 1"}
{"compound": "O=C(Nc1ccnc(-c2cc(-c3ccon3)n(Cc3ccccc3F)n2)n1)C1(C(F)(F)F)CC1", "note": "[Compound I-328]", "EC50": "> 1"}
{"compound": "CC(=O)OC(C(=O)Nc1ccnc(-c2cc(-c3ccon3)n(Cc3ccccc3F)n2)n1)c1ccccc1", "note": "(stereo not drawn) [Compound I-565]", "EC50": "0.101 to 1"}
{"compound": "O=C1OC(C(F)(F)F)CN1c1ccnc(-c2cc(-c3ccon3)n(Cc3ccccc3F)n2)n1", "note": "(stereo not drawn) [Compound I-482]", "EC50": "> 1"}
{"compound": "O=C1CCC(C(=O)Nc2ccnc(-c3cc(-c4ccon4)n(Cc4ccccc4F)n3)n2)N1", "note": "(stereo not drawn) [Compound I-459]", "EC50": "> 1"}
{"compound": "N#CCC(=O)Nc1ccnc(-c2cc(-c3ccon3)n(Cc3ccccc3F)n2)n1", "note": "[Compound I-579]", "EC50": "> 1"}
{"compound": "O=C(Nc1ccnc(-c2cc(-c3ccon3)n(Cc3ccccc3F)n2)n1)c1cc[nH]n1", "note": "[Compound I-386]", "EC50": "> 1"}
{"compound": "O=S1(=O)Cc2nc(-c3cc(-c4ccon4)n(Cc4ccccc4F)n3)nc(O)c2C1", "note": "[Compound I-628]", "EC50": "> 1"}
{"compound": "NS(=O)(=O)C1CCN(c2nc(-c3cc(-c4ccon4)n(Cc4ccccc4F)n3)ncc2F)C1", "note": "(stereo not drawn) [Compound I-427]", "EC50": "< 0.1"}
{"compound": "O=C(O)c1cccc(CCNc2nc(-c3cc(-c4ccon4)n(Cc4ccccc4F)n3)ncc2F)c1", "note": "[Compound I-377]", "EC50": "< 0.1"}
{"compound": "CCN(CC1(C(=O)O)CC1)c1nc(-c2cc(-c3ccon3)n(Cc3ccccc3F)n2)ncc1F", "note": "[Compound I-409]", "EC50": "< 0.1"}
{"compound": "NC(=O)C(O)CNc1nc(-c2cc(-c3ccon3)n(Cc3ccccc3F)n2)ncc1F", "note": "(stereo not drawn) [Compound I-443]", "EC50": "0.101 to 1"}
{"compound": "C[C@H]1CCCN(c2ccnc(-c3cc(-c4ccon4)n(Cc4ccccc4F)n3)n2)[C@H]1C(=O)O", "note": "[Compound I-333]", "EC50": "< 0.1"}
{"compound": "N#Cc1cc(-c2ncc(F)c(NCC(O)(C(F)(F)F)C(F)(F)F)n2)nn1Cc1ccccc1F", "note": "[Compound I-474]", "EC50": "> 1"}
{"compound": "O=C1CCC(=O)N1c1nc(-c2cc(-c3ccon3)n(Cc3ccccc3F)n2)ncc1F", "note": "[Compound I-533]", "EC50": "0.101 to 1"}
{"compound": "O[C@@H]1Cc2ccccc2[C@@H]1Nc1nc(-c2cc(-c3ccon3)n(Cc3ccccc3F)n2)ncc1F", "note": "[Compound I-395]", "EC50": "< 0.1"}
{"compound": "O=C(O)C1(CNc2nc(-c3cc(-c4ccon4)n(Cc4ccccc4F)n3)ncc2F)CC1", "note": "[Compound I-358]", "EC50": "< 0.1"}
{"compound": "CC(=O)c1cc(-c2ncc(F)c(N(C)CC3(C(=O)O)CC3)n2)nn1Cc1ccccc1F", "note": "[Compound I-451]", "EC50": "0.101 to 1"}
{"compound": "CC(O)(CNc1nc(-c2cc(-c3ccon3)n(Cc3ccccc3F)n2)ncc1F)C(F)(F)F", "note": "(stereo not drawn) [Compound I-634]", "EC50": "< 0.1"}
{"compound": "NC(=O)C(Nc1nc(-c2cc(-c3ccon3)n(Cc3ccccc3F)n2)ncc1F)C(F)(F)F", "note": "(stereo not drawn) [Compound I-540]", "EC50": "0.101 to 1"}
{"compound": "O=S(=O)(Nc1nc(-c2cc(-c3ccon3)n(Cc3ccccc3F)n2)ncc1F)C1CC1", "note": "[Compound I-610]", "EC50": "0.101 to 1"}
{"compound": "O=C(CO)N(CC(F)(F)F)c1nc(-c2cc(-c3ccon3)n(Cc3ccccc3F)n2)ncc1F", "note": "[Compound I-566]", "EC50": "0.101 to 1"}
{"compound": "O=C(CS(=O)(=O)c1ccccc1)Nc1ccnc(-c2cc(-c3ccon3)n(Cc3ccccc3F)n2)n1", "note": "[Compound I-592]", "EC50": "> 1"}
{"compound": "CC(=O)NS(=O)(=O)CCNc1nc(-c2cc(-c3ccon3)n(Cc3ccccc3F)n2)ncc1F", "note": "[Compound I-385]", "EC50": "0.101 to 1"}
{"compound": "COC(=O)N(C)c1cnc(-c2cc(-c3ccon3)n(Cc3ccccc3F)n2)nc1", "note": "[Compound I-630]", "EC50": "> 1"}
{"compound": "COCC(=O)Nc1ccnc(-c2cc(-c3ccon3)n(Cc3ccccc3F)n2)n1", "note": "[Compound I-528]", "EC50": "> 1"}
{"compound": "NCC(=O)Nc1ccnc(-c2cc(-c3ccon3)n(Cc3ccccc3F)n2)n1", "note": "[Compound I-520]", "EC50": "0.101 to 1"}
{"compound": "O=S(=O)(N1CC(Nc2nc(-c3cc(-c4ccon4)n(Cc4ccccc4F)n3)ncc2F)C1)C(F)(F)F", "note": "[Compound I-394]", "EC50": "> 1"}
{"compound": "O=C(Nc1ccnc(-c2cc(-c3ccon3)n(Cc3ccccc3F)n2)n1)C1CCOCC1", "note": "[Compound I-574]", "EC50": "0.101 to 1"}
{"compound": "OCC(O)(CNc1nc(-c2cc(-c3ccon3)n(Cc3ccccc3F)n2)ncc1F)C(F)(F)F", "note": "(stereo not drawn) [Compound I-355]", "EC50": "< 0.1"}
{"compound": "NC(=O)C1CCC(=O)N1c1nc(-c2cc(-c3ccon3)n(Cc3ccccc3F)n2)ncc1F", "note": "(stereo not drawn) [Compound I-534]", "EC50": "> 1"}
{"compound": "O=C(O)CCCCNc1nc(-c2cc(-c3ccon3)n(Cc3ccccc3F)n2)ncc1F", "note": "[Compound I-449]", "EC50": "< 0.1"}
{"compound": "NCCNc1nc(-c2cc(-c3ccon3)n(Cc3ccccc3F)n2)ncc1F", "note": "[Compound I-391]", "EC50": "0.101 to 1"}
{"compound": "CC(C)[C@H](Nc1nc(-c2cc(-c3ccon3)n(Cc3ccccc3F)n2)ncc1F)C(N)=O", "note": "[Compound I-537]", "EC50": "< 0.1"}
{"compound": "O=S(=O)(CCNc1nc(-c2cc(-c3ccon3)n(Cc3ccccc3F)n2)ncc1F)NO", "note": "[Compound I-432]", "EC50": "< 0.1"}
{"compound": "NS(=O)(=O)Nc1ccnc(-c2cc(-c3ccon3)n(Cc3ccccc3F)n2)n1", "note": "[Compound I-456]", "EC50": "0.101 to 1"}
{"compound": "O=C1CC(Nc2nc(-c3cc(-c4ccon4)n(Cc4ccccc4F)n3)ncc2F)CN1", "note": "(stereo not drawn) [Compound I-485]", "EC50": "< 0.1"}
{"compound": "CC(C(=O)Nc1ccnc(-c2cc(-c3ccon3)n(Cc3ccccc3F)n2)n1)S(C)(=O)=O", "note": "(stereo not drawn) [Compound I-587]", "EC50": "0.101 to 1"}
{"compound": "O=C(NC(CO)CO)[C@@H](CO)Nc1nc(-c2cc(-c3ccon3)n(Cc3ccccc3F)n2)ncc1F", "note": "[Compound I-336]", "EC50": "> 1"}
{"compound": "CS(=O)(=O)CC(=O)Nc1ccnc(-c2cc(-c3ccon3)n(Cc3ccccc3F)n2)n1", "note": "[Compound I-563]", "EC50": "> 1"}
{"compound": "CC(C)(C)OC(=O)NCCNc1nc(-c2cc(-c3ccon3)n(Cc3ccccc3F)n2)ncc1F", "note": "[Compound I-390]", "EC50": "< 0.1"}
{"compound": "CN(c1nc(-c2cc(-c3ccon3)n(Cc3ccccc3F)n2)ncc1F)[C@@H]1CC[C@H](C(=O)O)C1", "note": "[Compound I-309]", "EC50": "< 0.1"}
{"compound": "O=C(CN1Cc2ccccc2C1=O)Nc1ccnc(-c2cc(-c3ccon3)n(Cc3ccccc3F)n2)n1", "note": "[Compound I-599]", "EC50": "> 1"}
{"compound": "O=c1c(O)c(Nc2ccnc(-c3cc(-c4ccon4)n(Cc4ccccc4F)n3)n2)c1=O", "note": "[Compound I-402]", "EC50": "> 1"}
{"compound": "CC1(C(=O)O)CCN(c2nc(-c3cc(-c4ccon4)n(Cc4ccccc4F)n3)ncc2F)C1=O", "note": "(stereo not drawn) [Compound I-604]", "EC50": "0.101 to 1"}
{"compound": "CS(=O)(=O)CC(=O)Nc1nc(-c2cc(-c3ccon3)n(Cc3ccccc3F)n2)ncc1F", "note": "[Compound I-616]", "EC50": "0.101 to 1"}
{"compound": "CC(C)N(C[C@H](O)CO)c1nc(-c2cc(-c3ccon3)n(Cc3ccccc3F)n2)ncc1F", "note": "[Compound I-323]", "EC50": "0.101 to 1"}
{"compound": "CC(=O)NCC(=O)Nc1ccnc(-c2cc(-c3ccon3)n(Cc3ccccc3F)n2)n1", "note": "[Compound I-535]", "EC50": "0.101 to 1"}
{"compound": "CC1(C)CCC(=O)N1c1nc(-c2cc(-c3ccon3)n(Cc3ccccc3F)n2)ncc1F", "note": "[Compound I-512]", "EC50": "> 1"}
{"compound": "O=C(Nc1ccnc(-c2cc(-c3ccon3)n(Cc3ccccc3F)n2)n1)c1cocn1", "note": "[Compound I-532]", "EC50": "> 1"}
{"compound": "Fc1ccccc1Cn1nc(-c2ncc(F)c(N3CCc4[nH]nc(C(F)(F)F)c4C3)n2)cc1-c1ccon1", "note": "[Compound I-346]", "EC50": "> 1"}
